Test results from PubChem BioAssay AID276 (DTP/NCI, 2004).
Where “and” joins values, the source holds several entries; their conditions need not be identical. Identical values can stand only once. Inconclusive results and toxic doses are left out. The calls were made as follows: active = survival T/C of 150% or more; inactive = T/C below 125% in these data.

Test system: B6C3F1 mice, Lewis lung carcinoma iv, survival T/C
Experiment: NCI In Vivo Anticancer Drug Screen. Data for tumor model Lewis Lung Carcinoma (intravenous) in B6C3F1 mice
Settings: endpoint: median survival time, schedule: Q01DX009 (ip), higher = longer survival
Summary of the method: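 Transplantable tumor in mice; compound treated vs vehicle controls; read-out survival; value = treated/control (T/C).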

[1] = dose: 12.5 mg/kg/injection, vehicle: saline with Tween-80
[2] = dose: 25.0 mg/kg/injection, vehicle: saline with Tween-80
[3] = dose: 50.0 mg/kg/injection, vehicle: saline with Tween-80
[4] = dose: 100.0 mg/kg/injection, vehicle: saline with Tween-80
[5] = dose: 25.0 mg/kg/injection, vehicle: Klucel (hydroxypropylcellulose) (HPC)
[6] = dose: 50.0 mg/kg/injection, vehicle: Klucel (hydroxypropylcellulose) (HPC)
[7] = dose: 6.25 mg/kg/injection, vehicle: saline with Tween-80
[8] = dose: 200.0 mg/kg/injection, vehicle: saline with Tween-80
[9] = dose: 6.25 mg/kg/injection, vehicle: Klucel (hydroxypropylcellulose) (HPC)
[10] = dose: 12.5 mg/kg/injection, vehicle: Klucel (hydroxypropylcellulose) (HPC)

Measured: T/C

C[n+]1c2cc(N)ccc2cc2ccc(N)cc21
inactive: dose: 1.5 mg/kg/injection, vehicle: saline 102 % of control | dose: 3.0 mg/kg/injection, vehicle: saline 95 % of control | dose: 6.0 mg/kg/injection, vehicle: saline 107 % of control | dose: 12.0 mg/kg/injection, vehicle: saline 90 % of control

C/C=C/C=C1/OC(C)=C(C(C)=O)C1=O
inactive: [1] 123 % of control | [2] 108 % of control | [3] 93 % of control | [4] 103 % of control

O=C1N[C@H]2[C@H](CS[C@H]2CCCCC(=O)N(CCP(c2ccccc2)c2ccccc2)CCP(c2ccccc2)c2ccccc2)N1
inactive: [5] 93 % of control and 114 % of control | [6] 98 % of control and 88 % of control | dose: 100.0 mg/kg/injection, vehicle: Klucel (hydroxypropylcellulose) (HPC) 102 % of control | dose: 200.0 mg/kg/injection, vehicle: Klucel (hydroxypropylcellulose) (HPC) 92 % of control and 98 % of control

COc1ccc2nonc2c1
inactive: [7] 107 % of control and 112 % of control | [1] 102 % of control and 118 % of control | [2] 101 % of control and 107 % of control | [3] 106 % of control and 109 % of control

O=C1c2cccc3cc([N+](=O)[O-])cc(c23)C(=O)N1CCN1CCCC1
inactive: dose: 3.0 mg/kg/injection, vehicle: saline with Tween-80 106 % of control | dose: 6.0 mg/kg/injection, vehicle: saline with Tween-80 115 % of control

OCCN1CCN(CC/C=C2/c3ccccc3Sc3ccc(C(F)(F)F)cc32)CC1
inactive: dose: 0.19 mg/kg/injection, vehicle: saline 114 % of control | dose: 0.39 mg/kg/injection, vehicle: saline 101 % of control | dose: 0.78 mg/kg/injection, vehicle: saline 102 % of control | dose: 1.56 mg/kg/injection, vehicle: saline 98 % of control | dose: 3.12 mg/kg/injection, vehicle: saline 98 % of control | dose: 6.25 mg/kg/injection, vehicle: saline 108 % of control

NC(=S)N/N=C/c1ccc(OC(=O)COc2ccc(Cl)cc2)cn1
inactive: [1] 99 % of control and 100 % of control | [2] 92 % of control and 99 % of control | [3] 95 % of control and 101 % of control | [4] 92 % of control and 107 % of control | [8] 116 % of control

O=C1NC(O)c2ccccc2O1 (configuration not stated)
inactive: dose: 25.0 mg/kg/injection, vehicle: suspension in saline 106 % of control | dose: 50.0 mg/kg/injection, vehicle: suspension in saline 89 % of control | dose: 100.0 mg/kg/injection, vehicle: suspension in saline 107 % of control | dose: 200.0 mg/kg/injection, vehicle: suspension in saline 97 % of control

COc1cc2c(c(OC)c1OC)-c1c(cc3c(c1OC)OCO3)CC(C)C(C)(O)C2OC(=O)c1ccccc1 (configuration not stated)
inactive: dose: 6.25 mg/kg/injection, vehicle: saline + alcohol 93 % of control | dose: 12.5 mg/kg/injection, vehicle: saline + alcohol 96 % of control | dose: 25.0 mg/kg/injection, vehicle: saline + alcohol 107 % of control | dose: 50.0 mg/kg/injection, vehicle: saline + alcohol 102 % of control | dose: 100.0 mg/kg/injection, vehicle: saline + alcohol 106 % of control | dose: 200.0 mg/kg/injection, vehicle: saline + alcohol 103 % of control

CN=S(=O)(OCCCCCOS(=O)(=NC)c1ccc(C)cc1)c1ccc(C)cc1 (configuration not stated)
inactive: [7] 99 % of control | [1] 99 % of control | [2] 91 % of control | [3] 94 % of control | [4] 92 % of control | [8] 96 % of control

CCCCCCCC(=O)OCC(=O)[C@]1(O)Cc2c(O)c3c(c(O)c2[C@@H](OC2CC(N)C(O)C(C)O2)C1)C(=O)c1c(OC)cccc1C3=O (some centres not stated)
inactive: dose: 1.0 mg/kg/injection, vehicle: saline 102 % of control | dose: 1.0 mg/kg/injection, vehicle: suspension in saline 120 % of control | dose: 2.0 mg/kg/injection, vehicle: saline 124 % of control | dose: 2.0 mg/kg/injection, vehicle: suspension in saline 112 % of control

CC(C)[C@]12O[C@H]1[C@@H]1O[C@]13[C@]1(O[C@H]1C[C@H]1C4=C(C(=O)OC4)[C@@H](O)C[C@@]13C)[C@@H]2O
inactive: dose: 25.0 micrograms/kg/injection, vehicle: saline + alcohol 98 % of control | dose: 50.0 micrograms/kg/injection, vehicle: saline + alcohol 110 % of control | dose: 100.0 micrograms/kg/injection, vehicle: saline + alcohol 102 % of control | dose: 200.0 micrograms/kg/injection, vehicle: saline + alcohol 88 % of control | dose: 400.0 micrograms/kg/injection, vehicle: saline + alcohol 107 % of control

C=C1C(=O)C2=CC1CCC(=O)C1(C)CCC(OC(C)=O)C(C)(C)C1CC2O (configuration not stated)
inactive: dose: 3.75 mg/kg/injection, vehicle: Klucel (hydroxypropylcellulose) (HPC) 93 % of control | dose: 7.5 mg/kg/injection, vehicle: Klucel (hydroxypropylcellulose) (HPC) 110 % of control | dose: 15.0 mg/kg/injection, vehicle: Klucel (hydroxypropylcellulose) (HPC) 98 % of control | dose: 30.0 mg/kg/injection, vehicle: Klucel (hydroxypropylcellulose) (HPC) 96 % of control | dose: 60.0 mg/kg/injection, vehicle: Klucel (hydroxypropylcellulose) (HPC) 100 % of control

CC1(C)CC(=O)C(CSC(=O)c2ccccc2)C(=O)C1
inactive: dose: 3.13 mg/kg/injection, vehicle: Klucel (hydroxypropylcellulose) (HPC) 101 % of control | [9] 95 % of control | [10] 95 % of control | [5] 103 % of control | [6] 103 % of control

N#C[Se-].c1ccc([Te+](c2ccccc2)c2ccccc2)cc1
inactive: dose: 1.56 mg/kg/injection, vehicle: Klucel (hydroxypropylcellulose) (HPC) 97 % of control | dose: 3.12 mg/kg/injection, vehicle: Klucel (hydroxypropylcellulose) (HPC) 97 % of control | [9] 97 % of control | [10] 100 % of control | [5] 86 % of control

N=c1ccn2c(n1)OC1C(O)C(CO)OC12 (configuration not stated)
inactive: dose: 25.0 mg/kg/injection, vehicle: saline 101 % of control | dose: 50.0 mg/kg/injection, vehicle: saline 102 % of control | dose: 100.0 mg/kg/injection, vehicle: saline 107 % of control
